This is an account of results in ChEMBL document CHEMBL4118250, “Discovery of Novel Pyrazole-Based Selective Aldosterone Synthase (CYP11B2) Inhibitors: A New Template to Coordinate the Heme-Iron Motif of CYP11B2” (J Med Chem, 2018).

Data set [1] in a line: Solubility of the compound. It is filed as physicochemical.
Data set [2] concerns Cynomolgus monkey. Briefly: Time at which maximum plasma concentration stays above in vitro human CYP11B2 IC50 in cynomolgus monkey at 3 mg/kg, po administered as single dose by LC-MS/MS analysis. It is filed as ADME, organism-based, Macaca fascicularis. Particulars: in vivo.
Data set [3] deals with Cynomolgus monkey. Briefly: Time at which maximum plasma concentration stays below in vitro human CYP11B2 IC50 in cynomolgus monkey at 3 mg/kg, po administered as single dose by LC-MS/MS analysis. The format is ADME, organism-based, Macaca fascicularis. Conditions: in vivo.
A short description of data set [4]: Apparent passive permeability in human Caco2 cells. The format is ADME, cell-based. Particulars: Caco-2. For orientation: Caco-2 monolayers are a common model of the intestinal barrier.
A short description of data set [5]: Tmax in cynomolgus monkey at 1 mg/kg, po administered as single dose by LC-MS/MS analysis. It is filed as ADME, organism-based, Macaca fascicularis. Particulars: in vivo.

Molecules are shown by their SMILES.

In the case of `Cc1cc(C#N)ccc1-c1cnn2c1C[C@@H](O)C2`, the solubility result in data set [1] is reported as “Soluble”. The Time was determined as 8 h with Cynomolgus monkey [2] and 24 h with Cynomolgus monkey [3]. Further, the Papp in data set [4] was found to be 68.4 ×10⁻⁶ cm/s.

Consider `Cc1cc(C#N)ccc1-c1cnn2c1C[C@@H](Oc1ncc(F)cn1)C2`, for which the Tmax in data set [5] stood at 4 h. Further, the Papp in data set [4] was determined as 62.3 ×10⁻⁶ cm/s.

Broadly, the Papp is the rate of passage across a membrane or cell layer, normalised by area and donor concentration. By Tmax is commonly meant the time from dosing to the highest level.
